Experimental data as given in US7018989B2, “Chemical compounds” (University College Cardiff Consultants, LTD, priority 1995, dated 2006).
Read-outs that look alike come from different tables or passages of the source.

Tests used:
HIV-1 [1] = assay: microbe, parasite or virus in culture; settings: read-out: HIV1 CEM: EC50 for inhibition of HIV-1 in CEM cells
Summary of the method: (§1)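 Giant cell formation, recorded under the microscope on day 4, served as the end point for CEM cells, while MT-4 viability was determined by trypan blue exclusion on day 5. Cell suspensions (5×10^5/mL) received virus at 100 CCID50/mL before compound addition.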

MT-4 cells = assay: Toxicity to MT-4 cells; type: cell-based, human; settings: Table 6; mean of two or more repeat experiments; read-out: CC50 MT4: CC50 for toxicity to MT-4 cells
Procedure: (§2) Cells were infected with HIV-1 as previously described [Balzarini et al. AIDS (1991), 5, 21–28]. Briefly, 5×10^5 cells per milliliter were infected with HIV-1 or HIV-2 at 100 CCID50 (50% cell culture infective dose) per milliliter of cell suspension. Then 100 μL of the infected cell suspension was transferred to microtiter plate wells and mixed with 100 μL of the appropriate dilutions of the test compounds. After 4 days giant cell formation was recorded microscopically in the HIV-infected cell cultures [CEM], and after 5 days the number of viable cells was determined by trypan blue staining of the HIV-infected cell cultures [MT4].
(§3) The data columns are, in order: • HIV1 MT4: EC50 in μM for inhibition of HIV-1 in MT4 cells. • HIV2 MT4: EC50 in μM for inhibition of HIV-2 in MT4 cells. • CC50 MT4: CC50 in μM for toxicity to MT-4 cells. • HIV1 CEM: EC50 in μM for inhibition of HIV-1 in CEM cells. • HIV2 CEM: EC50 in μM for inhibition of HIV-2 in CEM cells. • HIV2 CEM-TK-: EC50 in μM for inhibition of HIV-2 in CEM/TK^− cells. • CC50 CEM: CC50 in μM for toxicity to CEM cells. • EC50 MSV: EC50 in μM for inhibition of MSV • MCC MSV: Minimum cytotoxic concentration in MSV assay

HIV-2 [2] = assay: Inhibition of HIV-2 in CEM cells (giant cell formation); type: cell-based
Summary of the method: as §1

HIV-1 [3] = assay: Inhibition of HIV-1 in MT4 cells; type: cell-based; settings: Table 6; mean of two or more repeat experiments; read-out: HIV1 MT4: EC50 for inhibition of HIV-1 in MT4 cells
Procedure: as §2, §3

HIV-2 [4] = assay: Inhibition of HIV-2 in CEM/TK- cells; type: cell-based
Summary of the method: as §1

HIV-2 [5] = assay: Inhibition of HIV-2 in MT4 cells; type: cell-based; settings: Table 6; mean of two or more repeat experiments; read-out: HIV2 MT4: EC50 for inhibition of HIV-2 in MT4 cells
Procedure: as §2, §3

C8166 cells = assay: Toxicity in C8166 cells (MTT-Formazen); type: cell-based; settings: Table 3
Procedure: (§4) C8166 cells. Cells were grown in RPMI 1640 with 10% calf serum. 4×10^4 cells per microtiter plate well were mixed with 5-fold dilutions of compound prior to addition of 10 CCID50 units of III-B strain of HIV-1 and incubated for 5–7 days (Betbeder et al. Antiviral Chem. Chemother. 1, 241–247, 1990). Formation of syncytia was examined from 2 days post-infection. Culture fluid was collected at 5–7 days and gp120 antigen production measured by ELISA (Mahmood and Hay, J. Immunol. Meth., 151, 9–13, 1992). […] Cell viability of infected and uninfected cells were assessed by the MTT-Formazen method (Pauwels et al. J. Virol. Meth. 20, 309–321, 1988).
(§5) Each assay was carried out in duplicate, on at least two separate occasions, and data quoted are the average of each separate assay.

III-B strain of HIV-1 = assay: microbe, parasite or virus in culture; type: cell-based
Procedure: as §4, §5

CEM cells = assay: Toxicity to CEM cells; type: cell-based, human
Procedure: as §2, §3

MSV = assay: Inhibition of MSV (in vitro); type: cell-based, Moloney Sarcoma Virus; settings: MSV
From the text: as §3

[6] = Minimum cytotoxic concentration in MSV assay; type: cell-based; settings: MSV assay
From the text: The data columns are, in order: • HIV1 MT4: EC50 in μM for inhibition of HIV-1 in MT4 cells. • HIV2 MT4: EC50 in μM for inhibition of HIV-2 in MT4 cells. • CC50 MT4: CC50 in μM for toxicity to MT-4 cells. • HIV1 CEM: EC50 in μM for inhibition of HIV-1 in CEM cells. • HIV2 CEM: EC50 in μM for inhibition of HIV-2 in CEM cells. • HIV2 CEM-TK-: EC50 in μM for inhibition of HIV-2 in CEM/TK^- cells. • CC50 CEM: CC50 in μM for toxicity to CEM cells. • EC50 MSV: EC50 in μM for inhibition of […]: Minimum cytotoxic concentration in MSV assay

[7] = Table 6, mean of two or more repeat experiments
[8] = Table 6, mean of two or more repeat experiments, read-out: HIV2 CEM: EC50 for inhibition of HIV-2 in CEM cells
[9] = Table 6, mean of two or more repeat experiments, read-out: HIV2 CEM-TK-: EC50 for inhibition of HIV-2 in CEM/TK^− cells
[10] = HIV1 in C8166 cells, Table 3, read-out: Activity EC50
[11] = HIV2, Table 2, read-out: EC50 CEM TK^−
[12] = CEM cells, HIV-2, read-out: HIV2 CEM: EC50 for inhibition of HIV-2 in CEM cells
[13] = CEM/TK- cells, HIV-2, read-out: HIV2 CEM-TK-: EC50 for inhibition of HIV-2 in CEM/TK- cells

COC(=O)C(Cc1ccccc1)NP(=O)(OCC1C=CC(n2cc(C)c(=O)[nH]c2=O)O1)OCC(Cl)(Cl)Cl (stereo not drawn) [Compound 325]
EC50 (HIV-1 [1]; [7]): 1 µM | CC50 (MT-4 cells): > 100 µM | EC50 (HIV-2 [2]; [8]): 2 µM | EC50 (HIV-1 [3]): 0.44 µM | EC50 (HIV-2 [4]; [9]): 0.7 µM | EC50 (HIV-2 [5]): 0.5 µM

COC(=O)C(C)NP(=O)(OCC1C=CC(n2cc(C)c(=O)[nH]c2=O)O1)Oc1ccc(F)cc1 (stereo not drawn) [Compound 327, 2′,3′-dideoxy-2′,3′-didehydrothymidine 5′-(p-fluorophenylmethoxyalaninyl) phosphoramidate]
CC50 (C8166 cells): 200 µM | Selectivity CC50/EC50 × 10^3 (III-B strain of HIV-1): 62.5 × 10^3 | EC50 (III-B strain of HIV-1; [10]): 0.0032 µM

Cc1cn(C2C=CC(COP(=O)(NC(C)C(=O)OCc3ccccc3)Oc3ccccc3)O2)c(=O)[nH]c1=O (stereo not drawn) [Compound 730, 2′,3′-dideoxy-2′,3′-didehydrothymidine-5′-(phenyl N-benzyloxyalaninyl) phosphoramidate]
EC50 (HIV-1 [1]; [7]): 0.016 µM | EC50 (HIV-2 [2]; [11]): 0.016 µM | EC50 (HIV-2 [2]; [8]): 0.016 µM | CC50 (C8166 cells): 400 µM | EC50 (HIV-2 [4]; [11]): 0.06 µM | EC50 (HIV-2 [4]; [9]): 0.06 µM | EC50 (III-B strain of HIV-1; HIV1 in C8166, Table 2, read-out: EC50 C8166): 0.0008 µM | EC50 (III-B strain of HIV-1; [10]): 0.0008 µM

Cc1cn(C2C=CC(COP(=O)(Oc3ccc(Br)cc3Br)N(C)C(C)C(=O)O)O2)c(=O)[nH]c1=O (stereo not drawn) [Compound 776, 2′,3′-dideoxy-2′,3′-didehydrothymidine-5′-(2,4-dibromophenyl N-methylalaninyl) phosphoramidate]
EC50 (HIV-1 [1]; [7]): 0.04 µM | EC50 (HIV-2 [2]; [8]): 0.055 µM | CC50 (C8166 cells): 100 µM | EC50 (HIV-2 [4]; [9]): 0.025 µM | CC50 (CEM cells; [7]): 16 µM | Selectivity CC50/EC50 × 10^3 (III-B strain of HIV-1): 125 × 10^3 | EC50 (III-B strain of HIV-1; [10]): 0.0008 µM

CCCCCCOC(=O)[C@H](C)NP(=O)(OCC1C=CC(n2cc(C)c(=O)[nH]c2=O)O1)Oc1ccccc1 (stereo partly drawn) [Compound 862, 2′,3′-dideoxy-2′,3′-didehydrothymidine 5′-(phenyl N-hexyloxyalaninyl) phosphoramidate]
EC50 (HIV-1 [1]; [7]): 0.06 µM | EC50 (HIV-2 [2]; [8]): 0.055 µM | CC50 (C8166 cells): 500 µM | EC50 (HIV-2 [4]; [9]): 0.033 µM | CC50 (CEM cells; [7]): 48 µM | Selectivity CC50/EC50 × 10^3 (III-B strain of HIV-1): 417 × 10^3 | EC50 (III-B strain of HIV-1; [10]): 0.0012 µM

Cc1cn(C2C=CC(COP(=O)(NC(C)C(=O)OCc3ccccc3)Oc3ccc(Br)cc3Br)O2)c(=O)[nH]c1=O (stereo not drawn) [Compound 868, 2′,3′-dideoxy-2′, 3′-didehydrothymidine-5′-(2,4-dibromophenyl N-benzylalaninyl) phosphoramidate]
EC50 (HIV-1 [1]; [7]): 0.2 µM | EC50 (HIV-2 [2]; [8]): 0.2 µM | CC50 (C8166 cells): 500 µM | EC50 (HIV-2 [4]; [9]): 0.2 µM | CC50 (CEM cells; [7]): 50 µM | Selectivity CC50/EC50 × 10^3 (III-B strain of HIV-1): 156 × 10^3 | EC50 (III-B strain of HIV-1; [10]): 0.0032 µM

Cc1cn(C2C=CC(COP(=O)(NC(Cc3ccccc3)C(=O)OCc3ccccc3)Oc3ccccc3)O2)c(=O)[nH]c1=O (stereo not drawn) [Compound 877, 2′,3′-dideoxy-2′,3′-didehydrothymidine-5′-(phenyl N-methoxyglycinyl) phosphoramidate]
EC50 (HIV-1 [1]; [7]): 0.6 µM | EC50 (HIV-2 [2]; [8]): 0.6 µM | CC50 (C8166 cells): 80 µM | EC50 (HIV-2 [4]; [9]): 0.24 µM | CC50 (CEM cells; [7]): 44 µM | Selectivity CC50/EC50 × 10^3 (III-B strain of HIV-1): 267 × 10^3 | EC50 (III-B strain of HIV-1; [10]): 0.0003 µM

Cc1cn([C@H]2C=C[C@@H](COP(=O)(NC(Cc3ccccc3)C(=O)OC(C)(C)C)Oc3ccccc3)O2)c(=O)[nH]c1=O (stereo partly drawn) [Compound 878, 2′,3′-dideoxy-2′,3′-didehydrothymidine-5′-(phenyl N-tert-butylphenylalaninyl) phosphoramidate]
EC50 (HIV-1 [1]; [7]): 2 µM | EC50 (HIV-2 [2]; [8]): 2 µM | CC50 (C8166 cells): 150 µM | EC50 (HIV-2 [4]; [9]): 0.65 µM | CC50 (CEM cells; [7]): 80 µM | Selectivity CC50/EC50 × 10^3 (III-B strain of HIV-1): 0.9 × 10^3 | EC50 (III-B strain of HIV-1; [10]): 0.16 µM

Cc1cn(C2C=CC(COP(=O)(N[C@@H](C)C(=O)OC3CCCCC3)Oc3ccccc3)O2)c(=O)[nH]c1=O (stereo partly drawn) [Compound 892, 2′,3′-dideoxy-2′,3′-didehydrothymidine 5′-(phenyl N-cyclohexyloxyalaninyl) phosphoramidate]
EC50 (HIV-1 [1]; [7]): 0.065 µM | EC50 (HIV-2 [2]; [8]): 0.075 µM | CC50 (C8166 cells): 500 µM | EC50 (HIV-2 [4]; [9]): 0.09 µM | CC50 (CEM cells; [7]): 51.4 µM | Selectivity CC50/EC50 × 10^3 (III-B strain of HIV-1): 312 × 10^3 | EC50 (III-B strain of HIV-1; [10]): 0.0016 µM

Cc1cn([C@H]2C=C[C@@H](COP(=O)(NC(C)C(=O)OC(C)(C)C)Oc3ccccc3)O2)c(=O)[nH]c1=O (stereo partly drawn) [Compound 893, 2′,3′-dideoxy-2′,3′-didehydrothymidine 5′-(phenyl N-tButyloxyalaninyl) phosphoramidate]
EC50 (HIV-1 [1]; [7]): 0.85 µM | EC50 (HIV-2 [2]; [8]): 1.1 µM | CC50 (C8166 cells): > 1000 µM | EC50 (HIV-2 [4]; [9]): 0.74 µM | CC50 (CEM cells; [7]): ≥ 250 µM | Selectivity CC50/EC50 × 10^3 (III-B strain of HIV-1): >5.0 × 10^3 | EC50 (III-B strain of HIV-1; [10]): 0.2 µM

Nc1ncnc2c1ncn2C1CCC(CO)O1 (stereo not drawn) [Cpd 1069]
EC50 (HIV-1 [1]; CEM cells, HIV-1): 4 µM | EC50 (HIV-2 [2]; [12]): 8 µM | EC50 (MSV): 24.3 µM | EC50 (HIV-2 [4]; [13]): 17.5 µM | CC50 (CEM cells; CEM cells): > 250 µM | MCC MSV: Minimum cytotoxic concentration in MSV assay [6]: >100

Cc1cn(C2CC(N=[N+]=[N-])C(COP(=O)(O)NC(C)C(=O)O)O2)c(=O)[nH]c1=O (stereo not drawn) [Cpd 1071]
EC50 (HIV-1 [1]; CEM cells, HIV-1): 115 µM | EC50 (HIV-2 [2]; [12]): 10 µM | EC50 (MSV): > 250 µM | EC50 (HIV-2 [4]; [13]): 250 µM | CC50 (CEM cells; CEM cells): > 250 µM | MCC MSV: Minimum cytotoxic concentration in MSV assay [6]: >100
